According to ChEMBL document CHEMBL1132131, “Dopamine-selective response in membrane potential by homooxacalix[3]arene triether host incorporated in PVC liquid membrane” (Bioorg Med Chem Lett, 1999):

Experiments:
[1] = Selectivity of guest-induced changes in membrane potential at pH 5.0 for PVC matrix liquid membrane without any host; format: ADME
[2] = Selectivity of guest-induced changes in membrane potential at pH 5.0 for PVC matrix liquid membranes incorporated with o-Tolyloxy-acetic acid decyl ester polymer; format: ADME
[3] = Selectivity of guest-induced changes in membrane potential at pH 5.0 for PVC matrix liquid membranes incorporated with o-Tolyloxy-acetic acid ethyl ester polymer; format: ADME
[4] = Selectivity of guest-induced changes in membrane potential at pH 5.0 for PVC matrix liquid membranes incorporated with (2-Butoxy-5-tert-butyl-3-methyl-phenyl)-methanol polymer; format: ADME
[5] = Selectivity of guest-induced changes in membrane potential at pH 5.0 for PVC matrix liquid membranes incorporated with 6,7,9,10,17,18,20,21-Octahydro-5,8,11,16,19,22-hexaoxa-dibenzo[a,j]cyclooctadecene; format: ADME
[6] = Partition coefficient (logP); format: physicochemical; settings: octanol/water
[7] = Selectivity of guest-induced changes in membrane potential(Kpot A,B) at pH 5.0 for PVC matrix liquid membranes incorporated with 6,7,9,10,17,18,20,21-Octahydro-5,8,11,16,19,22-hexaoxa-dibenzo[a,j]cyclooctadecene; format: ADME

Row | SMILES | Kpot A,B [1] | Kpot A,B [2] | Kpot A,B [3] | Kpot A,B [4] | Kpot A,B [5] | logP [6] | Kpot A,B [7]
1 | CC(C)(C)N [TERT-BUTYLAMINE] | 0.56 | < 0.01 | < 0.01 | 0.31 | 0.4 | 0.72 | –
2 | NCc1ccccc1 [BENZYLAMINE] | 0.78 | 0.15 | 0.15 | 0.45 | – | – | 0.9
3 | CNC[C@H](O)c1ccc(O)c(O)c1 [EPINEPHRINE] | 0.65 | 0.089 | 0.09 | < 0.01 | – | 0.59 | –
4 | CCCCCCCCN | 1.68 | 2.58 | 3.52 | 2.01 | 19 | 2.93 | –
5 | NCCc1ccccc1 [PHENETHYLAMINE] | 1 | 1 | 1 | 1 | 1 | 1.58 | –
6 | NC12CC3CC(CC(C3)C1)C2 [AMANTADINE] | 1.2 | < 0.01 | < 0.01 | 1.85 | 14.8 | 1.77 | –
7 | NCCc1ccc(O)c(O)c1 [DOPAMINE] | 1 | 1 | 1 | 1 | – | 0.82 | –
8 | NC[C@H](O)c1ccc(O)c(O)c1 [NOREPINEPHRINE] | – | – | – | – | – | 0.82 | –
